# Compound: NCC(=O)Nc1ccc(-n2nc(C(F)(F)F)cc2-c2ccc3c(ccc4ccccc43)c2)cc1 + CC1(C)CCC(c2ccc(Cl)cc2)=C(CN2CCN(c3ccc(C(=O)NS(=O)(=O)c4ccc(N[C@H](CCN5CCOCC5)CSc5ccccc5)c(S(=O)(=O)C(F)(F)F)c4)cc3)CC2)C1 [Navitoclax] (partner 0.5 µM)
# Assay: relative viability (nuclei count vs DMSO), 5 days (fraction); higher = more cells survive
# Conditions: first compound 0.06325 µM
# Summary of the method: (§1)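 One day after seeding in 1536-well plates, lung cancer cell lines were dosed by pin tool. Dosing was either single-drug or a fixed anchor-drug dose plus five library-drug doses (not always all listed) in √10 steps. After 5 days, nuclei were stained in one fix-and-stain step and counted on 4× images, and relative viability is the nuclei count of treated wells over that of vehicle wells, given as the median of duplicate plates.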
row,Cell Line,relative viability
1,ChaGo-K-1,1.06
2,NCI-H2170,0.598
3,NCI-H2405,1
4,HOP-62,1.01
5,HCC-44,0.942
6,A549,1.19
7,LU99A,0.799
8,BEN,0.0631
9,HARA,1.14
10,NCI-H1299,1.06

# Same assay, conditions: first compound 0.2 µM
row,Cell Line,relative viability
1,NCI-H727,0.52
2,NCI-H1650,1.32
3,EBC-1,0.554
4,NCI-H1703,1.35
5,NCI-H1993,1.02
6,SW 1573,0.867
7,NCI-H838,1.34
8,NCI-H520,1.34
9,NCI-H2126,0.851
10,EMC-BAC-2,1.26
11,NCI-H2085,1.28
12,Calu-6,1.09
13,HCC-366,1.02
14,NCI-H1666,1.11
15,NCI-H596,1.04
16,LK-2,0.961
17,NCI-H2087,0.939

row,Cell Line,relative viability
1,SK-MES-1,1.29
2,H3255,0.594
3,COR-L23,1.01
4,COR-L 105,0.649
5,IA-LM,0.898
6,LOU-NH91,0.722
7,ChaGo-K-1,0.636
8,NCI-H2170,0.578
9,NCI-H2405,0.941
10,HOP-62,0.996
11,HCC-44,1.02
12,A549,1.24
13,LU99A,0.87
14,BEN,0.0469
15,HARA,1.15
16,NCI-H1299,1.09

# Same assay, conditions: first compound 0.6325 µM
row,Cell Line,relative viability
1,NCI-H727,0.474
2,NCI-H1650,1.1
3,EBC-1,0.456
4,NCI-H1703,1
5,NCI-H1993,1
6,SW 1573,0.905
7,NCI-H838,1
8,NCI-H520,1.05
9,NCI-H2126,0.876
10,EMC-BAC-2,1.17
11,NCI-H2085,1.17
12,Calu-6,0.844
13,HCC-366,1.03
14,NCI-H1666,0.913
15,NCI-H596,1.1
16,LK-2,0.853
17,NCI-H2087,0.969

row,Cell Line,relative viability
1,SK-MES-1,1.2
2,H3255,0.482
3,COR-L23,1.07
4,COR-L 105,0.841
5,IA-LM,0.86
6,LOU-NH91,0.673
7,ChaGo-K-1,0.939
8,NCI-H2170,0.561
9,NCI-H2405,0.913
10,HOP-62,0.91
11,HCC-44,0.958
12,A549,1.17
13,LU99A,0.891
14,BEN,0.0862
15,HARA,1.16
16,NCI-H1299,1.04

# Same assay, conditions: first compound 2 µM
row,Cell Line,relative viability
1,NCI-H727,0.469
2,NCI-H1650,1.31
3,EBC-1,0.435
4,NCI-H1703,1.51
5,NCI-H1993,0.956
6,SW 1573,0.942
7,NCI-H838,1
8,NCI-H520,1.08
9,NCI-H2126,0.852
10,EMC-BAC-2,1.13
11,NCI-H2085,1.08
12,Calu-6,0.878
13,HCC-366,1.16
14,NCI-H1666,1.01
15,NCI-H596,0.841
16,LK-2,0.757
17,NCI-H2087,1.03

row,Cell Line,relative viability
1,SK-MES-1,1.16
2,H3255,0.457
3,COR-L23,1
4,COR-L 105,0.703
5,IA-LM,0.827
6,LOU-NH91,0.804
7,ChaGo-K-1,1.19
8,NCI-H2170,0.6
9,NCI-H2405,0.969
10,HOP-62,1.08
11,HCC-44,0.944
12,A549,0.7
13,LU99A,0.824
14,BEN,0.0668
15,HARA,1.15
16,NCI-H1299,1.07

# Compound: NCC(=O)Nc1ccc(-n2nc(C(F)(F)F)cc2-c2ccc3c(ccc4ccccc43)c2)cc1 + Cc1nc(NC(=O)N2CCC[C@H]2C(N)=O)sc1-c1ccnc(C(C)(C)C(F)(F)F)c1 [Alpelisib] (partner 2 µM)
# Assay: as above
# Conditions: first compound 0.02 µM
# Summary of the method: as §1
row,Cell Line,relative viability
1,NCI-H727,0.636
2,EBC-1,0.785
3,NCI-H1703,0.377
4,NCI-H1993,0.731
5,SW 1573,0.782
6,NCI-H838,0.971
7,LCLC-103H,0.924
8,NCI-H520,0.979
9,NCI-H2126,0.784
10,EMC-BAC-2,0.742
11,NCI-H2085,0.963
12,Calu-6,1.05
13,HCC-366,0.32
14,NCI-H1666,1.07
15,NCI-H596,0.63
16,LK-2,1.04
17,NCI-H2087,1.14
18,SK-MES-1,1.02
19,H3255,0.782

row,Cell Line,relative viability
1,COR-L23,0.895
2,COR-L 105,0.911
3,IA-LM,0.776
4,LOU-NH91,0.789
5,NCI-H2170,0.782
6,NCI-H2405,0.851
7,HOP-62,1.09
8,HCC-44,0.752
9,A549,0.714
10,LU99A,0.563
11,BEN,1.04
12,HARA,0.859
13,NCI-H661,0.82
14,NCI-H1299,1.05
15,NCI-H1563,0.969
16,ABC-1,0.955
17,NCI-H358,0.82
18,NCI-H650,0.882

# Same assay, conditions: first compound 0.06325 µM
row,Cell Line,relative viability
1,NCI-H727,0.561
2,EBC-1,0.785
3,NCI-H1703,0.306
4,NCI-H1993,0.654
5,SW 1573,0.741
6,NCI-H838,1.01
7,LCLC-103H,0.916
8,NCI-H520,0.982
9,NCI-H2126,0.774
10,EMC-BAC-2,0.75
